Test results reported in patent US12582645B2, “Chemokine CXCR4 receptor modulators and uses related thereto” (Emory University, priority 2017, dated 2026).

These molecules were tested against T1, CXCR4 (Homo sapiens, UniProt P61073) (assay: CXCR4-CEM calcium flux assay, antagonist mode (inhibition of SDF-1α-induced calcium flux)). Conditions: CCRF-CEM cells expressing endogenous CXCR4, stimulated with 4 nM SDF-1α, read-out: CXCR4 Ca^2+ Flux IC50.
T1 construct: Human T lymphoblast cells (CCRF-CEM) expressing endogenous CXCR4 receptors; endogenous in cells; host or cells: CCRF-CEM (human T lymphoblast cells)
Assay type: cell-based
Method: CXCR4-CEM Calcium Flux Assays
Exemplary compounds of the invention were tested for their ability to induce or inhibit calcium flux in CCRF-CEM cells, a human cell line that endogenously expresses CXCR4. Activation of CXCR4 stimulates G protein signaling which, in CCRF-CEM cells, causes a series of downstream events that leads to the release of intracellular calcium stores, or calcium flux. Calcium ion concentrations can be easily measured using a wide variety of […] calcium indicators and, as a result, calcium flux assays are commonly employed methods for measuring G protein-coupled receptor (GPCR) activity. Because the therapeutic potential of CXCR4 antagonists as anti-cancer agents likely relies on their ability to inhibit CXCR4-mediated G protein signaling, this assay was utilized as a first-pass measure of inhibitor potency.
The cells were then equilibrated to room temperature for 30 minutes before assay. […] For “antagonist mode” assessment, the cells are subsequently incubated for 25 minutes at room temperature. SDF-1α (R&D System Cat #350-NS/CF) was then added at a final concentration of 4 nM to stimulate the cells. Inhibition of SDF-1α-induced calcium flux was monitored by FDSS6000 for 90 seconds.
After correcting for background, EC50 values were determined. […] Inhibition data for the test compound over a range of concentrations was plotted as percentage inhibition of the test compound as compared to an internal control compound.

T1 sequence (P61073 whole entry): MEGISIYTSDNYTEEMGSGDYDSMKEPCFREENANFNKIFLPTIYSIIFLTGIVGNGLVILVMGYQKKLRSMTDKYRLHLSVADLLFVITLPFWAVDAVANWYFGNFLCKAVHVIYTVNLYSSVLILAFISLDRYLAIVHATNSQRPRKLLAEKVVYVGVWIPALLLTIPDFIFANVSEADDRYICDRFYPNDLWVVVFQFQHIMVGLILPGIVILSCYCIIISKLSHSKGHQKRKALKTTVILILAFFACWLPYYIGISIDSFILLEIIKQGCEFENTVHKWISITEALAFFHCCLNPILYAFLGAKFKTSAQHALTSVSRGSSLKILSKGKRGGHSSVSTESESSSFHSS

Row | Structure (SMILES) | IC50 [nM]
1 | CN(CC1CN(Cc2ccccn2)CCN1)[C@H]1CCCc2cccnc21 (single isomer, unassigned) [EMU023 (Stereoisomer 2)] | 1000
2 | CN(CC1CN(Cc2ccccn2)CCN1)[C@H]1CCCc2cccnc21 (single isomer, unassigned) [EMU023] | > 33300
3 | NCC1CC1CN(C[C@H]1Cc2ccccc2CN1)[C@H]1CCCc2cccnc21 (single isomer, unassigned) [EMU030 (Stereoisomer 1)] | 6.42
4 | NCC1CC1CN(C[C@H]1Cc2ccccc2CN1)[C@H]1CCCc2cccnc21 (single isomer, unassigned) [EMU030 (Stereoisomer 2)] | 19.1
5 | CN(CC1Cc2c(cccc2N2CCNCC2)CN1)[C@H]1CCCc2cccnc21 (single isomer, unassigned) [EMU034 (Stereoisomer 1)] | 6.08
6 | CN(CC1Cc2c(cccc2N2CCNCC2)CN1)[C@H]1CCCc2cccnc21 (single isomer, unassigned) [EMU034 (Stereoisomer 2)] | 314
7 | CN(CC1Cc2c(cccc2NC2CCNCC2)CN1)[C@H]1CCCc2cccnc21 (single isomer, unassigned) [EMU044 (Stereoisomer 1)] | 18.1
8 | CN(CC1Cc2c(cccc2NC2CCNCC2)CN1)[C@H]1CCCc2cccnc21 (single isomer, unassigned) [EMU044 (Stereoisomer 2)] | 1700
9 | CN(CC1Cc2c(cccc2N2CCC(N)CC2)CN1)[C@H]1CCCc2cccnc21 (single isomer, unassigned) [EMU058] | 33.4
10 | NC1CCC(N(C[C@H]2Cc3ccccc3CN2)[C@H]2CCCc3cccnc32)CC1 (single isomer, unassigned) [EMU073 (Stereoisomer 1)] | 33.7
11 | C[C@@H]1CN(c2cccc3c2CC(CN(C)[C@H]2CCCc4cccnc42)NC3)C[C@H](C)N1 (single isomer, unassigned) [EMU096 (Stereoisomer 1)] | 61
12 | C[C@@H]1CN(c2cccc3c2CC(CN(C)[C@H]2CCCc4cccnc42)NC3)C[C@H](C)N1 (single isomer, unassigned) [EMU096 (Stereoisomer 2)] | 3840
13 | c1cnc2c(c1)CCC[C@@H]2N(CC1CCCCC1)CC1Cc2c(cccc2N2CCNCC2)CN1 (single isomer, unassigned) [EMU100 (Stereoisomer 1)] | 715
14 | c1cnc2c(c1)CCC[C@@H]2N(CC1CCCCC1)CC1Cc2c(cccc2N2CCNCC2)CN1 (single isomer, unassigned) [EMU100 (Stereoisomer 2)] | 1290
15 | NC/C=C\CN(CC1Cc2ncccc2CN1)[C@H]1CCCc2cccnc21 (single isomer, unassigned) [EMU142 (Stereoisomer 1)] | 25.6
16 | NC/C=C\CN(CC1Cc2ncccc2CN1)[C@H]1CCCc2cccnc21 (single isomer, unassigned) [EMU142 (Stereoisomer 2)] | 503
17 | CN(CC1Cc2ncccc2CN1)[C@H]1CCCc2cccnc21 (single isomer, unassigned) [EMU174 (Stereoisomer 1)] | > 33300
18 | CN(CC1Cc2ncccc2CN1)[C@H]1CCCc2cccnc21 (single isomer, unassigned) [EMU174 (Stereoisomer 2)] | 476
19 | NC/C=C/CN(CC1Cc2ncccc2CN1)[C@H]1CCCc2cccnc21 (single isomer, unassigned) [EMU192 (Stereoisomer 1)] | 146
20 | NCc1ccc(CN(CC2Cc3ncccc3CN2)[C@H]2CCCc3cccnc32)cc1 (single isomer, unassigned) [EMU193] | 17000
21 | NCc1ccc(CN(CC2Cc3ncccc3CN2)[C@H]2CCCc3cccnc32)cc1 (single isomer, unassigned) [EMU194] | 111
22 | NC(=O)NC/C=C\CN(CC1Cc2ncccc2CN1)[C@H]1CCCc2cccnc21 (single isomer, unassigned) [EMU209 (Stereoisomer 1)] | 463
23 | NC(=O)NC/C=C/CN(CC1Cc2ncccc2CN1)[C@H]1CCCc2cccnc21 (single isomer, unassigned) [EMU212 (Stereoisomer 1)] | 430
24 | CN(C[C@H]1Cc2c(cccc2N2CC3CNCC3C2)CN1)C1CCCc2cccnc21 (stereo partly drawn) [EMU062] | 10.3
25 | C[C@@H](c1ccccn1)N(C[C@H]1Cc2ccccc2CN1)C[C@H]1Cc2ccccc2CN1 [EMU065, (S)-1-(pyridin-2-yl)-N,N-bis(((R)-1,2,3,4-tetrahydroisoquinolin-3-yl)methyl)ethanamine] | 1100
26 | CN1CCN(c2ccccc2CN2CCNC(CN(C)[C@H]3CCCc4cccnc43)C2)CC1 (stereo partly drawn) [EMU070, (8S)—N-methyl-N-((4-(2 (4-methylpiperazin-1-yl)benzyl)piperazin-2-yl)methyl)-5,6,7,8-tetrahydroquinolin-8-amine] | 6270

Row | Structure (SMILES) | IC50 [nM]
27 | N[C@H]1CC[C@H](CN(C[C@H]2Cc3ccccc3CN2)[C@H]2CCCc3cccnc32)CC1 [EMU074] | 284
28 | CC(C)(CCN)CN(C[C@H]1Cc2ccccc2CN1)[C@H]1CCCc2cccnc21 [EMU075] | > 33300
29 | CN(C[C@H]1Cc2c(cccc2N[C@H]2CC[C@H](N)CC2)CN1)[C@H]1CCCc2cccnc21 [EMU089] | 755
30 | CN1CCN(c2cccc3c2CC(CN(C)[C@H]2CCCc4cccnc42)N(C)C3)CC1 (stereo partly drawn) [EMU090] | 171
31 | NCc1cccc(CN(C[C@H]2Cc3ccccc3CN2)[C@H]2CCCc3cccnc32)c1 [EMU094, (S)—N-(3-(aminomethyl)benzyl)-N—(((R)-1,2,3,4-tetrahydroisoquinolin-3-yl)methyl)-5,6,7,8-tetrahydroquinolin-8-amine] | 292
32 | NCCCCN(Cc1cscn1)C[C@H]1Cc2ccccc2CN1 [EMU104, (R)—N1-((1,2,3,4-tetrahydroisoquinolin-3-yl)methyl)-N1-(thiazol-4-ylmethyl)butane-1,4-diamine] | ~16600
33 | Cc1cnc(CN(C)C[C@H]2Cc3c(cccc3N3CCNCC3)CN2)c(C)c1 [EMU107, (R)-1-(3,5-dimethylpyridin-2-yl)-N-methyl-N-((5-(piperazin-1-yl)-1,2,3,4-tetrahydroisoquinolin-3-yl)methyl)methanamine] | 21.4
34 | Cc1nc(CN(CCCCN)C[C@H]2Cc3ccccc3CN2)cs1 [EMU110, (R)—N1-((2-methylthiazol-4-yl)methyl)-N1-((1,2,3,4-tetrahydroisoquinolin-3-yl)methyl)butane-1,4-diamine] | > 33300
35 | NCCCCN(Cc1nccs1)C[C@H]1Cc2ccccc2CN1 [EMU111, (R)—N1-((1,2,3,4-tetrahydroisoquinolin-3-yl)methyl)-N1-(thiazol-2-ylmethyl)butane-1,4-diamine] | > 33300
36 | CN1CCN(c2cccc3c2C[C@H](CN(C)[C@H]2CCCc4cccnc42)NC3)CC1 [EMU116] | 29.6
37 | c1cnc2c(c1)CCC[C@@H]2N(CC1CC1)C[C@H]1Cc2c(cccc2N2CCNCC2)CN1 [EMU119] | 26.6
38 | FC1(F)CCC(CN(C[C@H]2Cc3c(cccc3N3CCNCC3)CN2)[C@H]2CCCc3cccnc32)CC1 [EMU120] | 498
39 | NC[C@H]1CC[C@H](CN(C[C@H]2Cc3ccccc3CN2)[C@H]2CCCc3cccnc32)CC1 [EMU121] | 343
40 | NCC1=C(CN(C[C@H]2Cc3ccccc3CN2)[C@H]2CCCc3cccnc32)CCCC1 [EMU124] | 227
41 | C/C(CN(C[C@H]1Cc2ccccc2CN1)[C@H]1CCCc2cccnc21)=C(\F)CN [EMU125] | 79.9
42 | C/C(CN(C[C@H]1Cc2ccccc2CN1)[C@H]1CCCc2cccnc21)=C(/F)CN [EMU126] | 1880
43 | Cc1cccnc1CN(C)C[C@H]1Cc2c(cccc2N2CCNCC2)CN1 [EMU127, (R)—N-methyl-1-(3-methylpyridin-2-yl)-N-((5-(piperazin-1-yl)-1,2,3,4-tetrahydroisoquinolin-3-yl)methyl)methanamine] | 91.2
44 | Cc1ccc(CN(C)C[C@H]2Cc3c(cccc3N3CCNCC3)CN2)nc1 [EMU130, (R)—N-methyl-1-(5-methylpyridin-2-yl)-N-((5-(piperazin-1-yl)-1,2,3,4-tetrahydroisoquinolin-3-yl)methyl)methanamine] | 510
45 | CN(C[C@H]1Cc2c(cccc2N2C[C@@H]3C[C@H]2CN3)CN1)C1CCCc2cccnc21 (stereo partly drawn) [EMU135] | 146
46 | CN(C[C@H]1Cc2c(cccc2N2CCNC(C)(C)C2)CN1)[C@H]1CCCc2cccnc21 [EMU136] | 33.9
47 | C/C(CN)=C(\F)CN(CC1Cc2ccccc2CN1)[C@H]1CCCc2cccnc21 (stereo partly drawn) [EMU140] | 28.3
48 | C/C(CN)=C(/F)CN(C[C@H]1Cc2ccccc2CN1)[C@H]1CCCc2cccnc21 [EMU141] | 43.7
49 | FC1(F)CCC(NC/C=C\CN(C[C@H]2Cc3ccccc3CN2)[C@H]2CCCc3cccnc32)CC1 [EMU143] | 98
50 | Cc1ccc(CN(CCCN2CCNCC2)C[C@H]2Cc3ccccc3CN2)nc1 [EMU148, (R)—N-((5-methylpyridin-2-yl)methyl)-3-(piperazin-1-yl)-N-((1,2,3,4-tetrahydroisoquinolin-3-yl)methyl)propan-1-amine] | 3100
51 | Cc1cccnc1CN(CCCN1CCNCC1)C[C@H]1Cc2ccccc2CN1 [EMU149, (R)—N-((3-methylpyridin-2-yl)methyl)-3-(piperazin-1-yl)-N-((1,2,3,4-tetrahydroisoquinolin-3-yl)methyl)propan-1-amine] | 92.1
